The source of these data is US20240287093A1, “HIGH ACTIVITY STING PROTEIN AGONIST” (ADLAI NORTYE BIOPHARMA CO., LTD., priority 2018, published 2024).

SMILES strings stand for the structures.

Common to all, as to type: cell-based
The target in one test is T1, STING variants (HAQ) (Homo sapiens, UniProt Q86WV6, G230A/R293Q/R71H).
T1 construct: host or cells: HEK-Blue ISG KO-STING cells (Invivogen, hkb-kostg)
Kind of test: SEAP reporter assay in HEK-Blue ISG KO-STING cells transfected with STING HAQ variant (Method 2, 0.0625 ng vector). To be noted: compound concentration 5 (mM as printed); 24 h; SEAP signal ratio to 0.5% DMSO. From the text: (§1) Example II: STING Variants (WT & HAQ) Activation by Compounds in HEK-Blue™ ISG KO-STING Cells (Method 2)
(§2) Activation of STING can be determined using a SEAP reporter assay in HEK-Blue™ ISG KO-STING cells (Invivogen, cat #hkb-kostg) transfected with plasmids expressing STING variants (WT & HAQ) (referred to WO2017/175147A1). STING variants (WT & HAQ) vector were constructed based on STING-232H vector (Origene, RC208418). GFP vector (VT2069) was bought from Youbio. The detailed protocol as follows: HEK-Blue™ ISG KO-STING cells were harvest and seeding into 96 well plate and the final cell number was 0.8×10^5 cells/well. Transfections were prepared using Lipofectamine 2000 (Invitrogen, Cat #11668-027) following the manufacturer's instructions (Lipo2000:DNA=1:10), 20 ul of transfection suspension containing 1 ng (WT variant) or 0.0625 ng (HAQ variant) STING vector was added to cell culture plate and incubated at 37° C., 5% CO2 for 24 h. After 24 hours incubation, compounds were added at proper concentration, the final DMSO concentration was 0.5%. After 24h incubation, the supernatant was collected to detect SEAP signal using Great EscAPe SEAP chemiluminescence KIT (Clontech, cat #631738) and cells were collected to detect cell viability using CellTiter-Glo Luminescent Cell Viability Assay(Promega, cat #G7573) following the manufacturer's instructions. The data were described by the ratio of the stimulating signal of compounds to 0.5% DMSO.

A further test deals with T2, STING (Homo sapiens, UniProt Q86WV6, G230A/H232R/R293Q/R71H).
T2 construct: THP1 was purchased from National Collection of Authenticated Cell Cultures (Cat #TCHu 57); host or cells: THP1
Kind of test: IFNβ release from THP1 by STING activation (hIFNβ ELISA). To be noted: THP1 cells, 24 h, IFN-β in supernatant; inactive = IFNβ not detected at the maximum concentration of compounds. An outline of the steps: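 THP1 cells from log-phase culture, suspended at 2×10^6 cells/ml, were treated with an 8-point, 3-fold compound series (0.2% DMSO final) for 24 h at 37°C, 5% CO2. Secreted IFN-β in supernatant was quantified by human IFNβ ELISA, and EC50 was obtained by curve fitting.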
(In general: An ELISA detects its analyte on a solid surface through an enzyme-linked reagent.)

The target in another test is T3, STING variants (WT) (Homo sapiens, UniProt Q86WV6).
T3 construct: host or cells: HEK-Blue ISG KO-STING cells (Invivogen, hkb-kostg)
Kind of test: SEAP reporter assay in HEK-Blue ISG KO-STING cells transfected with STING WT variant (Method 2, 1 ng vector). As to conditions: compound concentration 2.5 (mM as printed); 24 h; SEAP signal ratio to 0.5% DMSO.
Excerpt: as §1, §2
In general terms: Reporter assays use an easily measured gene product as a stand-in for the process of interest.

T2 sequence (Q86WV6 whole entry R71H/G230A/H232R/R293Q): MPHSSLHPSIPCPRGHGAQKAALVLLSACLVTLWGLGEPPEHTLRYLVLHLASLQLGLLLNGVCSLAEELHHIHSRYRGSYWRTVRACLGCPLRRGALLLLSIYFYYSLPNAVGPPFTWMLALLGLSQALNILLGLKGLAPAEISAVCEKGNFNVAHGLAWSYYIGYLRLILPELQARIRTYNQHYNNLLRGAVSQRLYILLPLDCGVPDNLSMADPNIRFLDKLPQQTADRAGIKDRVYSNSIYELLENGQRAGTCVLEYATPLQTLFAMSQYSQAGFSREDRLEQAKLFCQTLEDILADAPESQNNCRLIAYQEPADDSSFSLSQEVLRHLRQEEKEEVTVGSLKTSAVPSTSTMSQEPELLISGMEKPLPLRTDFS
T1 sequence (Q86WV6 whole entry R71H/G230A/R293Q): as the sequence (Q86WV6 whole entry R71H/G230A/H232R/R293Q) above, with R232H counted along it

What is called EC50 is the midpoint of the concentration-response curve. On to `CCn1nc(C)cc1C(=O)Nc1nc2cc(C(N)=O)cc3c2n1CC(C)(C)CN3C` [Example 68, 1-(1-Ethyl-3-methyl-1H-pyrazole-5-carboxamido)-6,8,8-trimethyl-6,7,8,9-tetrahydro-2,6,9a-triazabenzo[cd]azulene-4-carboxamide], for which the “Fold change related to DMSO control, HAQ” value at STING variants (HAQ) is given as 67.23 fold. The molecule also yielded a concentration giving a half-maximal response (EC50) on STING of 4.7 µM. At STING variants (WT), the “Fold change related to DMSO control, WT” value came out at 9.81 fold.
For `CCN1CC(C)(C)Cn2c(NC(=O)c3cc(C)nn3CC)nc3cc(C(N)=O)cc1c32` [Example 69, 6-Ethyl-1-(1-ethyl-3-methyl-1H-pyrazole-5-carboxamido)-8,8-dimethyl-6,7,8,9-tetrahydro-2,6,9a-triazabenzo[cd]azulene-4-carboxamide] the same measures were 74.83 fold, 7.6 µM and 7.69 fold.
On to `CCn1nc(C)cc1C(=O)Nc1nc2cc(C(N)=O)cc3c2n1C[C@@H](C)CO3` [Example 70, (R)-1-(1-Ethyl-3-methyl-1H-pyrazole-5-carboxamido)-8-methyl-8,9-dihydro-7H-6-oxa-2,9a-diazabenzo[cd]azulene-4-carboxamide], for which the “Fold change related to DMSO control, HAQ” value at STING variants (HAQ) came out at 10.57 fold. The molecule further had a 50% effective concentration (EC50) on STING greater than 50 µM. On STING variants (WT), the “Fold change related to DMSO control, WT” value stood at 2.37 fold.
For the molecule `CCn1nc(C)cc1C(=O)Nc1nc2cc(C(N)=O)cc3c2n1C[C@H](C)CO3` [Example 71, (S)-1-(1-Ethyl-3-methyl-1H-pyrazole-5-carboxamido)-8-methyl-8,9-dihydro-7H-6-oxa-2,9a-diazabenzo[cd]azulene-4-carboxamide], on STING variants (HAQ), the “Fold change related to DMSO control, HAQ” value worked out at 18.10 fold. The concentration for a half-maximal effect (EC50) on STING was greater than 17.6 µM. For the same molecule, the “Fold change related to DMSO control, WT” value on STING variants (WT) is given as 2.97 fold.
As to `CCn1nc(C)c(F)c1C(=O)Nc1nc2cc(C(N)=O)cc3c2n1CC1(COC1)CO3` [Example 72, 1-(1-Ethyl-4-fluoro-3-methyl-1H-pyrazole-5-carboxamido)-7H,9H-6-oxa-2,9a-diazaspiro[benzo[cd]azulene-8,3′-oxetan]-1,2a,2a^1(5a),4-tetraene-4-carboxamide], the “Fold change related to DMSO control, HAQ” value at STING variants (HAQ) is listed as 3.27 fold. The molecule also showed an EC50 on STING greater than 38.5 µM. At STING variants (WT), the “Fold change related to DMSO control, WT” value is on record as 1.24 fold.
